Results published in PubChem BioAssay (NCI).
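1) Cells in 96-well plates. 2) Compound, 48 h, 5 concentrations. 3) Linear interpolation between surrounding doses. 4) Unreached endpoint = highest concentration. At the GI50, growth is halved. TGI: concentration producing complete growth inhibition.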 Where a SMILES comes first, the peptide text is derived from it. [ ]: non-standard residue; d: D form. The star is where a group is joined. ξ: configuration not given here. 4Abz = Nc1ccc(C(=O)O)cc1; ξL = CC(C)CC(N)C(=O)O; NHOH = ON*

Assays:
Assay in all cases: DTP human tumour cell line panel, 48 h
DU-145 prostate = system: DU-145 prostate
HCT-15 colon = system: HCT-15 colon
HS 578T breast = system: HS 578T breast
IGROV1 ovarian = system: IGROV1 ovarian
KM12 colon = system: KM12 colon
MCF7 breast = system: MCF7 breast
MDA-MB-231 breast = system: MDA-MB-231 breast
SK-MEL-2 melanoma = system: SK-MEL-2 melanoma
SNB-75 CNS = system: SNB-75 CNS
NCI-H226 lung = system: NCI-H226 lung

With COc1ccc(-c2ccc(/C=N/n3cnn(CN4CCN(C)CC4)c3=S)o2)c([N+](=O)[O-])c1 the GI50 (DU-145 prostate) was 38.1 µM, the TGI (DU-145 prostate) was > 100 µM and the GI50 (HCT-15 colon) was 16.7 µM. The TGI (HCT-15 colon) was 37.5 µM, the GI50 (HS 578T breast) was 22.5 µM and the TGI (HS 578T breast) was 75.4 µM. For the same compound, the GI50 (IGROV1 ovarian) was 54.7 µM, the TGI (IGROV1 ovarian) was > 100 µM and the GI50 (KM12 colon) was 33.3 µM. The TGI (KM12 colon) was > 100 µM, the GI50 (MCF7 breast) was 28.7 µM and the TGI (MCF7 breast) was 97.4 µM. The GI50 (MDA-MB-231 breast) was 25.3 µM, the TGI (MDA-MB-231 breast) was 77.1 µM and the GI50 (SK-MEL-2 melanoma) was > 100 µM. The TGI (SK-MEL-2 melanoma) was > 100 µM, the GI50 (SNB-75 CNS) was 68.9 µM and the TGI (SNB-75 CNS) was > 100 µM.
In the case of N#CC1=C(N)Oc2c(sc3c(F)cccc23)C1c1ccc(Cl)cc1 (stereo not drawn), the GI50 (DU-145 prostate) is reported as 3.49 µM, the TGI (DU-145 prostate) is reported as 12.9 µM and the GI50 (HCT-15 colon) is reported as 2.75 µM. For the same compound, the TGI (HCT-15 colon) was 13.1 µM, the GI50 (HS 578T breast) was 2.63 µM and the TGI (HS 578T breast) was 15.5 µM. It also gave a GI50 (IGROV1 ovarian) of 3.43 µM, a TGI (IGROV1 ovarian) of 17.1 µM and a GI50 (KM12 colon) of 2.75 µM. For the same compound, the TGI (KM12 colon) was 18.9 µM, the GI50 (MCF7 breast) was 1.85 µM and the TGI (MCF7 breast) was 12 µM. It also gave a GI50 (MDA-MB-231 breast) of 3.46 µM, a TGI (MDA-MB-231 breast) of 16.2 µM and a GI50 (NCI-H226 lung) of 12.7 µM. The TGI (NCI-H226 lung) was 34.8 µM, the GI50 (SK-MEL-2 melanoma) was 3.49 µM and the TGI (SK-MEL-2 melanoma) was 15.5 µM. It also gave a GI50 (SNB-75 CNS) of 2.27 µM and a TGI (SNB-75 CNS) of 10 µM.
For CC(C)CC(NC(=O)[C@@H]1CCCN1C(=O)CNC(=O)c1ccc(N)cc1)C(=O)N[C@H](C)C(=O)NO (stereo partly drawn) (H-[4Abz]GP[ξL][dA]-{NHOH}), the GI50 (DU-145 prostate) was > 100 µM, the TGI (DU-145 prostate) was > 100 µM and the GI50 (HCT-15 colon) was > 100 µM. For the same compound, the TGI (HCT-15 colon) was > 100 µM, the GI50 (HS 578T breast) was > 100 µM and the TGI (HS 578T breast) was > 100 µM. For the same compound, the GI50 (IGROV1 ovarian) was > 100 µM, the TGI (IGROV1 ovarian) was > 100 µM and the GI50 (KM12 colon) was > 100 µM. For the same compound, the TGI (KM12 colon) was > 100 µM, the GI50 (MCF7 breast) was > 100 µM and the TGI (MCF7 breast) was > 100 µM. For the same compound, the GI50 (MDA-MB-231 breast) was > 100 µM, the TGI (MDA-MB-231 breast) was > 100 µM and the GI50 (NCI-H226 lung) was > 100 µM. The TGI (NCI-H226 lung) was > 100 µM, the GI50 (SK-MEL-2 melanoma) was > 100 µM and the TGI (SK-MEL-2 melanoma) was > 100 µM. The GI50 (SNB-75 CNS) was > 100 µM and the TGI (SNB-75 CNS) was > 100 µM.
CCCCCCCC(=O)SCC/C=C/[C@@H]1CC(=O)NCc2cccc(n2)CN(Cc2ccc(Cl)cc2)CC(=O)N[C@@H](C(C)C)C(=O)O1 was tested, and the GI50 (DU-145 prostate) was 10.9 µM, the TGI (DU-145 prostate) was > 100 µM and the GI50 (HCT-15 colon) was 20.1 µM. The TGI (HCT-15 colon) was > 100 µM, the GI50 (HS 578T breast) was 6.05 µM and the TGI (HS 578T breast) was 56.1 µM. For the same compound, the GI50 (IGROV1 ovarian) was 7.02 µM, the TGI (IGROV1 ovarian) was > 100 µM and the GI50 (KM12 colon) was 9.4 µM. The TGI (KM12 colon) was 65.1 µM, the GI50 (MCF7 breast) was 12.1 µM and the TGI (MCF7 breast) was > 100 µM. For the same compound, the GI50 (MDA-MB-231 breast) was 11.7 µM, the TGI (MDA-MB-231 breast) was 68.8 µM and the GI50 (NCI-H226 lung) was 22 µM. The TGI (NCI-H226 lung) was > 100 µM, the GI50 (SK-MEL-2 melanoma) was 13.3 µM and the TGI (SK-MEL-2 melanoma) was > 100 µM. The GI50 (SNB-75 CNS) was 5.74 µM and the TGI (SNB-75 CNS) was > 100 µM.
NS(=O)(=O)OC[C@H]1O[C@@H](n2cnc3c(N[C@H]4CCc5ccccc54)ncnc32)[C@H](O)[C@@H]1O showed a GI50 (DU-145 prostate) of 0.0838 µM, a TGI (DU-145 prostate) of 1.36 µM and a GI50 (HCT-15 colon) of 0.857 µM. The TGI (HCT-15 colon) was 7.14 µM, the GI50 (HS 578T breast) was 0.432 µM and the TGI (HS 578T breast) was 6.93 µM. It also gave a GI50 (IGROV1 ovarian) of 0.174 µM, a TGI (IGROV1 ovarian) of 1 µM and a GI50 (KM12 colon) of 0.525 µM. The TGI (KM12 colon) was 2.58 µM, the GI50 (MCF7 breast) was 0.0736 µM and the TGI (MCF7 breast) was > 100 µM. For the same compound, the GI50 (MDA-MB-231 breast) was 0.47 µM, the TGI (MDA-MB-231 breast) was 2.92 µM and the GI50 (NCI-H226 lung) was 0.0285 µM. The TGI (NCI-H226 lung) was 0.0863 µM, the GI50 (SK-MEL-2 melanoma) was 0.098 µM and the TGI (SK-MEL-2 melanoma) was 0.434 µM. For the same compound, the GI50 (SNB-75 CNS) was 0.358 µM and the TGI (SNB-75 CNS) was 1 µM.
For O=C1C=Cc2cc3ccccc3c3cccc1c23, the GI50 (DU-145 prostate) was 9.53 µM, the TGI (DU-145 prostate) was > 100 µM and the GI50 (HCT-15 colon) was 3.21 µM. It also gave a TGI (HCT-15 colon) of 18.6 µM, a GI50 (HS 578T breast) of 4.09 µM and a TGI (HS 578T breast) of 11.7 µM. The GI50 (IGROV1 ovarian) was 8.42 µM, the TGI (IGROV1 ovarian) was > 100 µM and the GI50 (KM12 colon) was 12.1 µM. For the same compound, the TGI (KM12 colon) was 35.6 µM, the GI50 (MCF7 breast) was 5.26 µM and the TGI (MCF7 breast) was 37.7 µM. For the same compound, the GI50 (MDA-MB-231 breast) was 4.72 µM, the TGI (MDA-MB-231 breast) was 29 µM and the GI50 (NCI-H226 lung) was 2.61 µM. For the same compound, the TGI (NCI-H226 lung) was 10 µM, the GI50 (SK-MEL-2 melanoma) was 27.6 µM and the TGI (SK-MEL-2 melanoma) was > 100 µM. The GI50 (SNB-75 CNS) was 11.8 µM and the TGI (SNB-75 CNS) was 72.3 µM.
